Structures can show the parent of a compound that is named as a salt.
Tests used:
human and animal plasma = test: Determination of anticoagulatory activity: activated partial thromboplastin time (aPTT) in plasma; conditions: concentration of test substance which brings about a 1.5-fold extension of the aPTT; plasma species not given
How it was run: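 Citrated plasma (1:9, 0.11 M citrate; 4000 g, 15 min) from human or animal blood incubated with test compound and cephalin/kaolin PTT reagent for 3 min at 37° C.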

human factor XIa = target: T1, human factor XIa (Homo sapiens, UniProt P03951); test: Measurement of FXIa inhibition (fluorogenic peptide substrate Boc-Glu(OBzl)-Ala-Arg-AMC); format: biochemical; conditions: factor XIa from Kordia, 15 min preincubation, 30 min at 22° C., fluorescence
T1 construct: purchased Kordia
How it was run: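 Released AMC fluorescence (360/460 nm) read after 30 min at 22 °C. The reaction was started with Boc-Glu(OBzl)-Ala-Arg-AMC (10 μM stock) after a 15 min preincubation of the enzyme (0.45 nM stock) with compound (final 50 μM to 0.00013 μM).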

T1 sequence (P03951 388-625 limits assumed): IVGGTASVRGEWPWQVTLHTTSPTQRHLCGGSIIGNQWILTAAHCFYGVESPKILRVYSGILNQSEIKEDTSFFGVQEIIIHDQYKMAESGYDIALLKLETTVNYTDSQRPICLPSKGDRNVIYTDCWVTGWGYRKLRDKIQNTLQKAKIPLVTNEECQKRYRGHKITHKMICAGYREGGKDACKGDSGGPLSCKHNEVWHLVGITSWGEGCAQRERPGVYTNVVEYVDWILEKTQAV
T1 sequence (P03951 19-387 partner limits assumed): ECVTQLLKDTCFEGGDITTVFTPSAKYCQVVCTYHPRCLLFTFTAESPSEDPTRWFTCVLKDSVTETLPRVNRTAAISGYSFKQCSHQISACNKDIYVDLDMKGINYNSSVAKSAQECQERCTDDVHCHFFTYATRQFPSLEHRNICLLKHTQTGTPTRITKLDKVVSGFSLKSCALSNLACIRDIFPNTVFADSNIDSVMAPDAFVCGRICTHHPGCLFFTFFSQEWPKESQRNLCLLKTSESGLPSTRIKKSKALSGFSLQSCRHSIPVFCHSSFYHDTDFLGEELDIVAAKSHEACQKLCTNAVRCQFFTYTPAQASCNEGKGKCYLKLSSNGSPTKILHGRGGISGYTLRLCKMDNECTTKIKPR

Compound	aPTT (human and animal plasma)	IC50 (human factor XIa)
CN(C)C1CCC(NC(=O)c2ccc(-c3ccc(C[C@H](NC(=O)[C@H]4CC[C@H](CN)CC4)C(=O)Nc4ccc(-c5nc(C(F)(F)C(F)(F)C(=O)O)n[nH]5)cc4)cc3)c(C(F)(F)F)c2)CC1 (stereo partly drawn) [Example 132, 3-{5-[4-({(2S)-2-({[trans-4-(Aminomethyl)cyclohexyl]carbonyl}amino)-3-[4′-{[4-(dimethyl-amino)cyclohexyl]carbamoyl}-2′-(trifluoromethyl)biphenyl-4-yl]propanoyl}amino)phenyl]-1H-1,2,4-triazol-3-yl}-2,2,3,3-tetrafluoropropanoic acid hydrochloride]	0.05 µmol/L	1.6 nM
Cc1cc(C(=O)NCC[N+](C)(C)C)ccc1-c1ccc(C[C@H](NC(=O)[C@H]2CC[C@H](CN)CC2)C(=O)Nc2ccc(-c3nn[nH]n3)cc2)cc1 [Example 41, 2-[({4′-[(2S)-2-({[trans-4-(Aminomethyl)cyclohexyl]carbonyl}amino)-3-oxo-3-({[4-(2H-tetrazol-5-yl)phenyl]amino}propyl]-2-methylbiphenyl-4-yl}carbonyl)amino]-N,N,N-trimethylethanaminium hydrochloride]	0.18 µmol/L	6 nM
Cc1cc(C(=O)NC2CCNCC2)ccc1-c1ccc(C[C@H](NC(=O)[C@H]2CC[C@H](CN)CC2)C(=O)Nc2ccc3[nH]c(C(F)(F)C(F)(F)C(F)(F)C(=O)O)nc3c2)cc1 [Example 65, 4-[5-({(2S)-2-({[trans-4-(Aminomethyl)cyclohexyl]carbonyl}amino)-3-[2′-methyl-4′-(piperidin-4-ylcarbamoyl)biphenyl-4-yl]propanoyl}amino)-1H-benzimidazol-2-yl]-2,2,3,3,4,4-hexafluorobutanoic acid hydrochloride]	0.48 µmol/L	26 nM
NC[C@H]1CC[C@H](C(=O)N[C@@H](Cc2ccc(-c3ccc(C(=O)NC4CCNCC4)c(C(F)(F)F)c3)cc2)C(=O)Nc2ccc(-c3nn[nH]n3)cc2)CC1 [Example 120, 4′-[(2S)-2-({[trans-4-(Aminomethyl)cyclohexyl]carbonyl}amino)-3-oxo-3-{[4-(2H-tetrazol-5-yl)phenyl]amino}propyl]-N-(piperidin-4-yl)-3-(trifluoromethyl)biphenyl-4-carboxamide hydrochloride]	0.14 µmol/L	6.7 nM
Cc1cc(C(=O)NC2CCCNC2=O)ccc1-c1ccc(C[C@H](NC(=O)[C@H]2CC[C@H](CN)CC2)C(=O)Nc2ccc(-c3nnc(C(F)(F)C(F)(F)C(=O)O)[nH]3)cc2)cc1 (stereo partly drawn) [Example 155, 3-[5-(4-{[(2S)-2-({[trans-4-(Aminomethyl)cyclohexyl]carbonyl}amino)-3-{2′-methyl-4′-[(2-oxopiperidin-3-yl)carbamoyl]biphenyl-4-yl}propanoyl]amino}phenyl)-4H-1,2,4-triazol-3-yl]-2,2,3,3-tetrafluoropropanoic acid hydrochloride]	0.16 µmol/L	1 nM
CCN(CC)CCNC(=O)c1ccc(-c2ccc(C[C@H](NC(=O)[C@H]3CC[C@H](CN)CC3)C(=O)Nc3ccc(-c4nn[nH]n4)cc3)cc2)c(C)c1.Cl [Example 2, 4′-[(2S)-2-({[trans-4-(Aminomethyl)cyclohexyl]carbonyl}amino)-3-oxo-3-{[4-(2H-tetrazol-5-yl)phenyl]amino}propyl]-N-[2-(diethylamino)ethyl]-2-methylbiphenyl-4-carboxamide hydrochloride]	0.14 µmol/L	4.9 nM
Cl.NC[C@H]1CC[C@H](C(=O)N[C@@H](Cc2ccc(-c3ccc(C(=O)NCCN4CCCC4)cc3)cc2)C(=O)Nc2ccc(-c3nnn[nH]3)cc2)CC1 [Example 91, 4′-[(2S)-2-({[trans-4-(Aminomethyl)cyclohexyl]carbonyl}amino)-3-oxo-3-{[4-(1H-tetrazol-5-yl)phenyl]amino}propyl]-N-[2-(pyrrolidin-1-yl)ethyl]biphenyl-4-carboxamide hydrochloride]	0.14 µmol/L	7.2 nM
CCN(CC)CCNC(=O)c1ccc(-c2ccc(C[C@H](NC(=O)[C@H]3CC[C@H](CN)CC3)C(=O)Nc3ccc4c(=O)[nH][nH]c4c3)cc2)c(C)c1 [Example 23, 4′-{(2S)-2-({[trans-4-(Aminomethyl)cyclohexyl]carbonyl}amino)-3-oxo-3-[(3-oxo-2,3-dihydro-1H-indazol-6-yl)amino]propyl}-N-[2-(diethylamino)ethyl]-2-methylbiphenyl-4-carboxamide hydrochloride]	0.28 µmol/L	27.5 nM
Cc1cc(C(=O)NC2CCC(N(C)C)CC2)ccc1-c1ccc(C[C@H](NC(=O)[C@H]2CC[C@H](CN)CC2)C(=O)Nc2ccc(-c3nnc(C(F)(F)C(F)(F)C(F)(F)C(=O)O)[nH]3)cc2)cc1 (stereo partly drawn) [Example 148, 4-[5-(4-{[(2S)-2-({[trans-4-(Aminomethyl)cyclohexyl]carbonyl}amino)-3-(4′-{[4-(dimethylamino)cyclohexyl]carbamoyl}-2′-methylbiphenyl-4-yl)propanoyl]amino}phenyl)-4H-1,2,4-triazol-3-yl]-2,2,3,3,4,4-hexafluorobutanoic acid hydrochloride]	0.07 µmol/L	1 nM
COC(=O)C1CCC(NC(=O)c2ccc(-c3ccc(C[C@H](NC(=O)[C@H]4CC[C@H](CN)CC4)C(=O)Nc4ccc(-c5nnn[nH]5)cc4)cc3)c(C)c2)C(=O)N1 (stereo partly drawn) [Example 151, Methyl 5-[({4′-[(2S)-2-({[trans-4-(aminomethyl)cyclohexyl]carbonyl}amino)-3-oxo-3-{[4-(1H-tetrazol-5-yl)phenyl]amino}propyl]-2-methylbiphenyl-4-yl}carbonyl)amino]-6-oxopiperidine-2-carboxylate hydrochloride]	0.1 µmol/L	0.97 nM
NC[C@H]1CC[C@H](C(=O)N[C@@H](Cc2ccc(-c3cc(F)c(C(=O)NC4CCNCC4)c(F)c3)cc2)C(=O)Nc2ccc(-c3nn[nH]n3)cc2)CC1 [Example 118, hydrochloride]	0.11 µmol/L	2.9 nM
Cc1cc(C(=O)N[C@@H]2CCCNC2=O)ccc1-c1ccc(C[C@H](NC(=O)[C@H]2CC[C@H](CN)CC2)C(=O)Nc2ccc(-c3nnc(C(F)(F)C(F)(F)C(=O)O)[nH]3)cc2)cc1 [Example 166, 3-[5-(4-{[(2S)-2-({[trans-4-(Aminomethyl)cyclohexyl]carbonyl}amino)-3-(2′-methyl-4′-{[(3R)-2-oxopiperidin-3-yl]carbamoyl}biphenyl-4-yl)propanoyl]amino}phenyl)-4H-1,2,4-triazol-3-yl]-2,2,3,3-tetrafluoropropanoic acid hydrochloride]	0.09 µmol/L	0.8 nM
CCN(CC)CCNC(=O)c1ccc(-c2ccc(C[C@H](NC(=O)[C@H]3CC[C@H](CN)CC3)C(=O)Nc3ccc(-c4nn[nH]n4)cc3)cc2)c(Cl)c1 [Example 10, 4′-[(2S)-2-({[trans-4-(Aminomethyl)cyclohexyl]carbonyl}amino)-3-oxo-3-{[4-(2H-tetrazol-5-yl)phenyl]amino}propyl]-2-chloro-N-[2-(diethylamino)ethyl]biphenyl-4-carboxamide hydrochloride]	0.13 µmol/L	4.4 nM
NC[C@H]1CC[C@H](C(=O)N[C@@H](Cc2ccc(-c3ccc(C(=O)N[C@@H]4CCNC4)cc3Cl)cc2)C(=O)Nc2ccc(-c3nn[nH]n3)cc2)CC1 [Example 12, 4′-[(2S)-2-({[trans-4-(Aminomethyl)cyclohexyl]carbonyl}amino)-3-oxo-3-{[4-(2H-tetrazol-5-yl)phenyl]amino}propyl]-2-chloro-N-[(3R)-pyrrolidin-3-yl]biphenyl-4-carboxamide hydrochloride]	0.1 µmol/L	2.7 nM
NC[C@H]1CC[C@H](C(=O)N[C@@H](Cc2ccc(-c3ccc(C(=O)N[C@@H]4CCCNC4=O)c(F)c3)cc2)C(=O)Nc2ccc(-c3n[nH]c(C(F)(F)C(F)(F)C(=O)O)n3)cc2)CC1 [Example 111, 3-[3-(4-{[(2S)-2-({[trans-4-(Aminomethyl)cyclohexyl]carbonyl}amino)-3-(3′-fluoro-4′-{[(3R)-2-oxopiperidin-3-yl]carbamoyl}biphenyl-4-yl)propanoyl]amino}phenyl)-1H-1,2,4-triazol-5-yl]-2,2,3,3-tetrafluoropropanoic acid hydrochloride]	0.13 µmol/L	1 nM
CC1CC(NC(=O)c2ccc(-c3ccc(C[C@H](NC(=O)[C@H]4CC[C@H](CN)CC4)C(=O)Nc4ccc(-c5nn[nH]n5)cc4)cc3)c(Cl)c2)CCN1 (stereo partly drawn) [Example 30, 4′-[(2S)-2-({[trans-4-(Aminomethyl)cyclohexyl]carbonyl}amino)-3-oxo-3-{[4-(2H-tetrazol-5-yl)phenyl]amino}propyl]-2-chloro-N-(2-methylpiperidin-4-yl)biphenyl-4-carboxamide hydrochloride]	0.12 µmol/L	3.2 nM
Cc1cc(C(=O)N[C@H]2CC[C@H](O)CC2)ccc1-c1ccc(C[C@H](NC(=O)[C@H]2CC[C@H](CN)CC2)C(=O)Nc2ccc(-c3nnc(C(F)(F)C(F)(F)C(=O)O)[nH]3)cc2)cc1 (single isomer, unassigned; enantiomer 1) [Example 104]	0.05 µmol/L	0.4 nM
Cc1cc(C(=O)N[C@H]2CCNC2)ccc1-c1ccc(C[C@H](NC(=O)[C@H]2CC[C@H](CN)CC2)C(=O)Nc2ccc(-c3nn[nH]n3)cc2)cc1 [Example 9, 4′-[(2S)-2-({[trans-4-(Aminomethyl)cyclohexyl]carbonyl}amino)-3-oxo-3-{[4-(2H-tetrazol-5-yl)phenyl]amino}propyl]-2-methyl-N-[(3S)-pyrrolidin-3-yl]biphenyl-4-carboxamide hydrochloride]	0.09 µmol/L	1.7 nM

From US20160272617A1, “SUBSTITUTED PHENYLALANINE DERIVATIVES” (BAYER PHARMA AKTIENGESELLSCHAFT, priority 2013, published 2016)
